Assay results reported in patent publication US8409560B2, “Solid dispersion formulations and methods of use thereof” (Zalicus Pharmaceuticals Ltd., priority 2011, dated 2013).

Key:
[1] = pKa of compound 1 (previously determined); type: physicochemical
Text: Compound 1 has the following previously determined characteristics: […]

[2] = Hygroscopicity of compound 1 free base (previously determined); type: physicochemical; conditions: at 70% relative humidity (RH)
Text: Compound 1 has the following previously determined characteristics:
(vii) hygroscopicity (for free base): 0.09% at 70% relative humidity (RH);

[3] = Fed-fasted pharmacokinetics and relative oral bioavailability of compound 1 HCl salt, micronized formulation (previously determined); conditions: human, in vivo
Text: The fed-fasted pharmacokinetic data were collected using a “normal fat” meal consisting of toast with 1 pat of butter, a banana, 2% milk, apple juice, and Honey Nut Cheerios®, where the meal has about 501 calories with 99 calories from fat, 346 calories from carbohydrates, and 56 calories from protein; and using a “high fat” meal consisting of 2 eggs fried in butter, 2 strips of bacon, 2 slices of toast with butter, 4 ounces of hash brown potatoes and 8 ounces of whole milk, where the meal has about 1,000 calories with 500-600 calories from fat, 250 calories from carbohydrates, and 150 calories from protein.
The relative oral bioavailability of compound 1 (HCl salt) has been previously determined in various fed and fasted states in a micronized formulation. This micronized formulation included the following for a 100 mg dose in a #1 HPMC (white opaque) capsule: compound 1 HCl micronized (100.00 mg), Lactose Fast Flo® Fast Flo® composed of a spray-dried mixture of crystalline and amorphous lactose monohydrate (184.80 mg); sodium starch glycolate (19.20 mg); polysorbate 80 (14.40 mg); purified water (used as the granulating fluid and was removed during processing) (QS); and magnesium stearate (1.60 mg), where the resultant fill weight was 320.00 mg. […]

[4] = Modulated differential scanning calorimetry (MDSC), glass transition temperature Tg; type: physicochemical; conditions: compound 1 alone
Experimental: FIG. 6 is a graph showing modulated differential scanning calorimetry measurements at ambient relative humidity for solid dispersion formulations having 20% (w/w) loading of compound 1. Glass transition temperature Tg is shown for formulations of carboxymethylethyl cellulose (CMEC), hydroxypropylmethyl cellulose acetate succinate M grade (HPMCAS-M), cellulose acetate phthalate (CAP), and polyvinyl acetate phthalate (PVAP).
Various solid dispersion formulations were tested using modulated differential scanning calorimetry (MDSC). MDSC measurements provide glass transition temperature Tg values, which can be used to understand the molecular mobility of a drug within the dispersion. […] Data for Eudragit® L 100 are not shown, but Tg is likely greater than 150° C. due to polymer degradation above this temperature. All recorded Tg values were at least twice as high as compound 1 alone (Tg=41.6° C.). Lower Tg values could indicate potential stability issues over long periods of time or at an increased temperature or pressure. Table 3 provides Tg values for CAP (formulation 1), HPMCAS-M (formulation 2), and PVAP.

For `O=C(CC(c1ccccc1)c1ccccc1)N1CCN(C(c2ccccc2)c2ccccc2)CC1` [Compound 1, 1-(4-benzhydrylpiperazin-1-yl)-3,3-diphenylpropan-1-one], which pKa [1] is on record?
Its pKa is 5.4.

And the hygroscopicity [2]?
The hygroscopicity was 0.09%.

And the Tmax [3]?
Its Tmax is less than 2 h.

What about the Tg [4] of the same compound?
The Tg was 41.6 °C.
